# Molecular target: T1, PDE4B (human recombinant) enzyme (Homo sapiens, UniProt Q07343)
# T1 construct: made in house; host or cells: Saccharomyces cerevisiae strain GL62 (PDE-deficient yeast), as described in WO 94/20079
# Test: Inhibition of PDE4B catalytic activity, IMAP fluorescence polarisation (FP) assay
# Assay type: biochemical
# Settings: inhibition of catalytic activity at PDE4B (human recombinant); FP assay described above or similar
# Description: Human recombinant PDE4B, in particular the 2B splice variant thereof (HSPDE4B2B), is disclosed in WO 94/20079 and also in M. M. McLaughlin et al., “A low Km, rolipram-sensitive, cAMP-specific phosphodiesterase from human brain: cloning and expression of cDNA, biochemical characterisation of recombinant protein, and tissue distribution of mRNA”, J. Biol. Chem., 1993, 268, 6470-6476. For example, in Example 1 of WO 94/20079, human recombinant PDE4B is described as being expressed in the PDE-deficient yeast Saccharomyces cerevisiae strain GL62, e.g. after induction by addition of 150 uM CuSO4, and 100,000×g supernatant fractions of yeast cell lysates are described for use in the harvesting of PDE4B enzyme.
# The ability of compounds to inhibit PDE catalytic activity was determined by IMAP Fluorescence Polarisation (FP) assay (Molecular Devices Ltd code: R8062) in 384-well format. […]
# For the PDE3, PDE4B and PDE4D assays Fluorescein adenosine 3′,5′-cyclic phosphate (Molecular Devices Ltd code: R7091) was added to give ˜40 nM final concentration. […] The FP ratio of parallel to perpendicular light was measured using an Analyst™ plate reader (from Molecular Devices Ltd). […] Curves were analysed using ActivityBase and XLfit (ID Business Solutions Limited). Results were expressed as pIC50 values.
# T1 sequence (Q07343 1-564 isoform Q07343-2): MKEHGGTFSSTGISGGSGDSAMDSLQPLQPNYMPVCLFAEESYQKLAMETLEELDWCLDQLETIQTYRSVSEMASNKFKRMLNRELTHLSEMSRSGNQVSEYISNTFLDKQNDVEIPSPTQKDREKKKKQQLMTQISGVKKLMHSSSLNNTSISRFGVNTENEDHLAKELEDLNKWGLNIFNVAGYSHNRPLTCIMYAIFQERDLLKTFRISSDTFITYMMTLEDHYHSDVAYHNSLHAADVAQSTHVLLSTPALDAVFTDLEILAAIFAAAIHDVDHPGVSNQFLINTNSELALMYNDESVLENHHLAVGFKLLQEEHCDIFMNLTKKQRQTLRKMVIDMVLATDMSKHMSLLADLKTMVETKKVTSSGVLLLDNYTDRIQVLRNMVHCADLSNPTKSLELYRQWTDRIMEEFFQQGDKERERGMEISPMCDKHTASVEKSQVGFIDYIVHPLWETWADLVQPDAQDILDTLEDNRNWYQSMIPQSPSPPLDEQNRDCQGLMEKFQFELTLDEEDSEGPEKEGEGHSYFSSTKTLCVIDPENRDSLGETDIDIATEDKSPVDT
smiles,measurement,value
"Cc1cc(S(C)(=O)=O)cc2c(Nc3cccc(C#N)c3)c(C(N)=O)nnc12 [Example 1, 4-[(3-Cyanophenyl)amino]-8-methyl-6-(methylsulfonyl)-3-cinnolinecarboxamide]",IC50,~0.1 nM

# — patent publication US20080280911A1, “Cinnoline Compounds as Inhibitors of Phosphodiesterase Type IV (Pde4)” (Glaxo Group Limited, priority 2005, published 2008)
